In patent publication US4361515A, “Antihyperlipemic dihydro-ML-236B derivatives, their preparation and use” (Sankyo Company, Limited, priority 1980, dated 1982):

Tests used:
[1] = Toxicity in mice, intraperitoneal administration; settings: mouse, in vivo, ip, read-out: dose at which mice survive
[2] = Solubility in organic solvents; format: physicochemical
[3] = system: synthesis of cholesterol in a rat liver; assay: Inhibitory activity against the biosynthesis of cholesterol in a rat liver; format: biochemical
Experimental: 10. Inhibitory activity against the biosynthesis of cholesterol: a 50% inhibition of the synthesis of cholesterol in a rat liver is observed at a concentration of 0.04 μg/ml.

| SMILES | MTD [1] | Solubility ([2]; benzene) | Solubility ([2]; hexane and petroleum ether) | Solubility ([2]; methanol, ethanol, acetone, ethyl acetate, chloroform and carbon tetrachloride) | concentration at which a 50% inhibition of the synthesis of cholesterol is observed [3] |
| --- | --- | --- | --- | --- | --- |
| CCC(C)C(=O)OC1CCC(O)C2=CC(O)C(C)C(CCC3CC(O)CC(=O)O3)C21 (centres unmarked) [3',5'-dihydroxy-(DH.ML-236B), 3',5'-Dihydroxy-(DH.ML-236B)] | ≤ 1 mg/kg |  |  |  |  |
| CC1C=C2C=CC(C)C(CCC3CC(O)CC(=O)O3)C2C(O)C1 (centres unmarked) [MB-530A] |  | soluble | insoluble | readily soluble | 0.04 µg/mL |
